This passage reports Kd results from ChEMBL document CHEMBL3991601, “The target landscape of clinical kinase drugs” (Science, 2017).

One experiment has as its target Actin-related protein 2 (Homo sapiens, UniProt P61160).
Experiment [1] addresses Casein kinase II subunit alpha' (Homo sapiens, UniProt P19784).
Another experiment has as its target LIM domain kinase 2 (Homo sapiens, UniProt P53671).
For experiment [2], the target named is Tyrosine-protein kinase Lyn (Homo sapiens, UniProt P07948).
Experiment [3] has as its target T1, Dual specificity mitogen-activated protein kinase kinase 6 (Homo sapiens, UniProt P52564).
T1 sequence (P52564 whole entry): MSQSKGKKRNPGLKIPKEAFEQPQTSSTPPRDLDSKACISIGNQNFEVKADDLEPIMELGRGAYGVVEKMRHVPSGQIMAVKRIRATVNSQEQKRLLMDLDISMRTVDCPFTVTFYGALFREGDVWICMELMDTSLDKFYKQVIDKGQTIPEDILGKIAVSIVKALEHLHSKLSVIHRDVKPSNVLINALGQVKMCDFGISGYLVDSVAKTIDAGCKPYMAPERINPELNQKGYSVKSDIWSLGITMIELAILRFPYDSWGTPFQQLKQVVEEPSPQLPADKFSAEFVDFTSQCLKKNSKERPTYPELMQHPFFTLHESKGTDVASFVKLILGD

The target in experiment [4] is T2, Mitogen-activated protein kinase kinase kinase 3 (Homo sapiens, UniProt Q99759).
T2 sequence (Q99759 whole entry): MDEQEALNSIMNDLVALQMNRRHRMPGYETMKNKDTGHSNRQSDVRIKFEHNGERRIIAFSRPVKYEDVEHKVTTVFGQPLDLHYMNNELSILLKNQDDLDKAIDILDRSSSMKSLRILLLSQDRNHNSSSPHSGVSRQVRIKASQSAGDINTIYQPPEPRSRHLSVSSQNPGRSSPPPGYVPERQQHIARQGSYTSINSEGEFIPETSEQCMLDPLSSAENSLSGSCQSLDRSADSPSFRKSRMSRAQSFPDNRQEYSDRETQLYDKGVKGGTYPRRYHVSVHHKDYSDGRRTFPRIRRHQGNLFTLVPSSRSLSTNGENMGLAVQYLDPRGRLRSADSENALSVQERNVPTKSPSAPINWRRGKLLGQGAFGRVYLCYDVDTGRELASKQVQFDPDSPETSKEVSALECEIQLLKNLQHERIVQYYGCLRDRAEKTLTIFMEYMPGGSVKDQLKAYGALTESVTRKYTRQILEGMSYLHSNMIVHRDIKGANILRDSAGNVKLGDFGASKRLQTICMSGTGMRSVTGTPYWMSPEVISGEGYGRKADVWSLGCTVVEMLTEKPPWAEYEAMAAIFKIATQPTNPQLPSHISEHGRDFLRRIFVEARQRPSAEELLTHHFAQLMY

The target of experiment [5] is MAP/microtubule affinity-regulating kinase 3 (Homo sapiens, UniProt P27448).
In experiment [6] the target is Maternal embryonic leucine zipper kinase (Homo sapiens, UniProt Q14680).
For experiment [7], the target named is T3, Serine/threonine-protein kinase D3 (Homo sapiens, UniProt O94806).
T3 sequence (O94806 whole entry): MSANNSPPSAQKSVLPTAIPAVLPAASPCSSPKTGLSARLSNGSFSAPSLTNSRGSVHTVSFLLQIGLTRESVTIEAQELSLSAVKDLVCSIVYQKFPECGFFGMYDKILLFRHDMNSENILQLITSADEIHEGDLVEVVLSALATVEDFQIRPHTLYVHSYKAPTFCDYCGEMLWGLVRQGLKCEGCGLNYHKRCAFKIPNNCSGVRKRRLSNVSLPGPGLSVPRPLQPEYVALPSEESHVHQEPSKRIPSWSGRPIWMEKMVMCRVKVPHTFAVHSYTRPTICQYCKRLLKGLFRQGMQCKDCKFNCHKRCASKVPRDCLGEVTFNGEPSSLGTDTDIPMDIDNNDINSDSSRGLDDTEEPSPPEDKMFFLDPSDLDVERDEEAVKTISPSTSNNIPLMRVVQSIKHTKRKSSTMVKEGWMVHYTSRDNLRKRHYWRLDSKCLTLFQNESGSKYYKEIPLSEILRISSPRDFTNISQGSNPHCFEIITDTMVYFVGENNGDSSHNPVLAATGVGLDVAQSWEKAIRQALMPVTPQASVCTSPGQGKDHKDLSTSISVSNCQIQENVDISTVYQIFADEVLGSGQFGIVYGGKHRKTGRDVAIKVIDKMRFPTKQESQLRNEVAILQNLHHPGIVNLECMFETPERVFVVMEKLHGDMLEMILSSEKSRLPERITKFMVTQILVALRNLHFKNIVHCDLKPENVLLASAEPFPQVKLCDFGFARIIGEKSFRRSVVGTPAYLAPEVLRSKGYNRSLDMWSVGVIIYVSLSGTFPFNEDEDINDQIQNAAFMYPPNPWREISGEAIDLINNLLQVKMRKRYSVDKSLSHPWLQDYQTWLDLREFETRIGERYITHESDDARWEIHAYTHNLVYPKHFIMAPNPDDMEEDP

Experiment [8] deals with Ribosomal protein S6 kinase alpha-5 (Homo sapiens, UniProt O75582).
Experiment [9] concerns the target Tyrosine-protein kinase SYK (Homo sapiens, UniProt P43405).
For experiment [10], the target named is Ribosomal protein S6 kinase beta-1 (Homo sapiens, UniProt P23443).
In experiment [11] the target is Dual specificity mitogen-activated protein kinase kinase 1 (Homo sapiens, UniProt Q02750).

The source made the active and inactive calls. Rule as the data show it, for most assays here: actives have a measured Kd and inactives only a lower limit.
Also: in the data inactive means no Kd found up to 30 µM.

Sequence of Tyrosine-protein kinase Lyn (P07948 whole entry): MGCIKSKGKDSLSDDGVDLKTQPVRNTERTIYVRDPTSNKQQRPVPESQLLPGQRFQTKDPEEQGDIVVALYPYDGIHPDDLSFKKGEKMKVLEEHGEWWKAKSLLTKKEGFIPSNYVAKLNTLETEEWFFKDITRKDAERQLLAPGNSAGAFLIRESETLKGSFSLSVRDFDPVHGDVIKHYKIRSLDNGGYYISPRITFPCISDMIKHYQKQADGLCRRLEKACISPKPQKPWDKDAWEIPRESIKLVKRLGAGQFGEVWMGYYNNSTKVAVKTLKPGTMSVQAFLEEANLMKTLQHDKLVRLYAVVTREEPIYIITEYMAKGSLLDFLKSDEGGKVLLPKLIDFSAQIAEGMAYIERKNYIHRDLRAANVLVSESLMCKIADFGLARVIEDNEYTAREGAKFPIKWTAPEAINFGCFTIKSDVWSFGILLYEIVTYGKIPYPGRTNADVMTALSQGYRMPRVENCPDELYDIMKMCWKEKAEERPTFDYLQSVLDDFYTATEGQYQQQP
Sequence of LIM domain kinase 2 (P53671 whole entry, the tested form may be a part): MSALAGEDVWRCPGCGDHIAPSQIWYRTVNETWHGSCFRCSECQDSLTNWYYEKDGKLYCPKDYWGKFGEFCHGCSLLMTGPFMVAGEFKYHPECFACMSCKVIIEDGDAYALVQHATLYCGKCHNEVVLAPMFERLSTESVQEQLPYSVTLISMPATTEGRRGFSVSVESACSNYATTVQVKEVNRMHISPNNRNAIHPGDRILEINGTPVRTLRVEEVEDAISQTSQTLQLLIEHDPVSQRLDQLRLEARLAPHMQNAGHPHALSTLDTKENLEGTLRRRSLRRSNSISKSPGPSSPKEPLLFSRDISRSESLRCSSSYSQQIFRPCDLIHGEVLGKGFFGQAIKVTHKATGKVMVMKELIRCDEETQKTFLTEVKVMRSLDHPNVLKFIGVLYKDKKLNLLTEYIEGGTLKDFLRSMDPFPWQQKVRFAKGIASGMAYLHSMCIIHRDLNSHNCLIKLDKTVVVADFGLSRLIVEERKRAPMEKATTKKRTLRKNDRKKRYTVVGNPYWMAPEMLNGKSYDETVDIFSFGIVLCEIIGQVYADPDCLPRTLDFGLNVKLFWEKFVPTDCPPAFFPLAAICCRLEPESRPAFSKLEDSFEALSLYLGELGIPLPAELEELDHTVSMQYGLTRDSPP
Sequence of Dual specificity mitogen-activated protein kinase kinase 1 (Q02750 whole entry): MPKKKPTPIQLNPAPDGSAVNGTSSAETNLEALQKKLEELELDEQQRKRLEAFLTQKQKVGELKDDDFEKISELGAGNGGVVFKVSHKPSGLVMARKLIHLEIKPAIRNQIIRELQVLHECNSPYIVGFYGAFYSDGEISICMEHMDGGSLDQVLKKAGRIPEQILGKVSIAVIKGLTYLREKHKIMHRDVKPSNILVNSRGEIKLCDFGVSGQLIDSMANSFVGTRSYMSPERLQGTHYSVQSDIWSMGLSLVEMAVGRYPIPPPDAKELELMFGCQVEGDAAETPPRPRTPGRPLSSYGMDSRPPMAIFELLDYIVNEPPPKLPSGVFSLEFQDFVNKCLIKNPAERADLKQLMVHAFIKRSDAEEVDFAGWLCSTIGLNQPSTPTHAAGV
Sequence of Ribosomal protein S6 kinase alpha-5 (O75582 whole entry): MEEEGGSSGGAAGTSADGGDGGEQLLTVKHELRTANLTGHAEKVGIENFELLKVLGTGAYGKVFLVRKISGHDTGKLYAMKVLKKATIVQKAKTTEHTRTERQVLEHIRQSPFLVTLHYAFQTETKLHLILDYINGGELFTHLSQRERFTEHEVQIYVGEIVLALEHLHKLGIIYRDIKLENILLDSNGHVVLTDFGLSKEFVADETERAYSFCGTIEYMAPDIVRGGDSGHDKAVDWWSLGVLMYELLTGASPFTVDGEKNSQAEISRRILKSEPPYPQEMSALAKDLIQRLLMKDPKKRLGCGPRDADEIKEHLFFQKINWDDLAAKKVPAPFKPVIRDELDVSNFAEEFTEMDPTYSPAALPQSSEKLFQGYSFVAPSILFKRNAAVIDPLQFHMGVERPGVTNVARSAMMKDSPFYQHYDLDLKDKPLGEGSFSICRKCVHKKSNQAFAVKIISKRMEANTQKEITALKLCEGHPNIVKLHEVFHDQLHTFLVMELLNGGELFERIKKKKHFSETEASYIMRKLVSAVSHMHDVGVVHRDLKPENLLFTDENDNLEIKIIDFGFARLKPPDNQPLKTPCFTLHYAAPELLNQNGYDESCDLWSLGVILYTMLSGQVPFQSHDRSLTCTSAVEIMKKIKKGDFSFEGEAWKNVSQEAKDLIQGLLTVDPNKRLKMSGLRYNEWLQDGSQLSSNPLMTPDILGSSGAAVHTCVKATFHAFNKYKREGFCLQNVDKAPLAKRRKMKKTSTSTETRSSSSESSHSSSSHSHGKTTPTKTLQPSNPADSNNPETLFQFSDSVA
Sequence of Maternal embryonic leucine zipper kinase (Q14680 whole entry): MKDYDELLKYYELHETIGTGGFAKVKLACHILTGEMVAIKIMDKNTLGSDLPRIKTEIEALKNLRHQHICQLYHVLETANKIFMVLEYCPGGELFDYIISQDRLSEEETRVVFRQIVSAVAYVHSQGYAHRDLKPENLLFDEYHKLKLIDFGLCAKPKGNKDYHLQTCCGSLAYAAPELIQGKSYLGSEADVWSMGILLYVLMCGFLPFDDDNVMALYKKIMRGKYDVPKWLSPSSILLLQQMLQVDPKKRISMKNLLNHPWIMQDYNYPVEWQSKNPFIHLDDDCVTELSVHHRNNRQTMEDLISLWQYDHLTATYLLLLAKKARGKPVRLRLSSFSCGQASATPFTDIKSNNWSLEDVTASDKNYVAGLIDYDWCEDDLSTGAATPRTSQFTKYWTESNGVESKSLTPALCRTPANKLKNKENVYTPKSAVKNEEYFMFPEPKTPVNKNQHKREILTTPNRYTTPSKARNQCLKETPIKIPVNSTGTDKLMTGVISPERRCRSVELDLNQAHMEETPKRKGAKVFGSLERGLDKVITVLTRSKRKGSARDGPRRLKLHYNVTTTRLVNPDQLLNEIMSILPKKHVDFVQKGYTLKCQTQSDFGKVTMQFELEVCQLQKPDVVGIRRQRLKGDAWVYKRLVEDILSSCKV
Sequence of MAP/microtubule affinity-regulating kinase 3 (P27448 whole entry): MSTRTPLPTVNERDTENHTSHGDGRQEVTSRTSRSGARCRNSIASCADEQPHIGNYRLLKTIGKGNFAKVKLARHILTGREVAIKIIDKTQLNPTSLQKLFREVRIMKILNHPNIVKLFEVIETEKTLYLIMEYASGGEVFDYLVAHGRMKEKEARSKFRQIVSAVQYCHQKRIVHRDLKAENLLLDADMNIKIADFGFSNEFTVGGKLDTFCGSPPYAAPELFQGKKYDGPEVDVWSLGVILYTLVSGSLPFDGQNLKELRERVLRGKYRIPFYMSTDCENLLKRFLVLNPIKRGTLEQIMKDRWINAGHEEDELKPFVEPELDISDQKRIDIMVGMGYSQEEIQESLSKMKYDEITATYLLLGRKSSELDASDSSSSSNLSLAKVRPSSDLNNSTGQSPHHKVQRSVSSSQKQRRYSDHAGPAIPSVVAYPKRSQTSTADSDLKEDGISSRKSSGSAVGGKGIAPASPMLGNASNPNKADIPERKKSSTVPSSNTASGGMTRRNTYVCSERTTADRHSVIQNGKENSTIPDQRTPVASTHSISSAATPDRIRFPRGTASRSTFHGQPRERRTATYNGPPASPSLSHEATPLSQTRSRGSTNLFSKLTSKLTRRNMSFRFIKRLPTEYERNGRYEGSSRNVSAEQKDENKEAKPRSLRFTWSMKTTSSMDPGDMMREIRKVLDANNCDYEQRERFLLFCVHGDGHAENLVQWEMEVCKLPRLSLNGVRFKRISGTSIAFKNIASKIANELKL
Sequence of Casein kinase II subunit alpha' (P19784 whole entry, the tested form may be a part): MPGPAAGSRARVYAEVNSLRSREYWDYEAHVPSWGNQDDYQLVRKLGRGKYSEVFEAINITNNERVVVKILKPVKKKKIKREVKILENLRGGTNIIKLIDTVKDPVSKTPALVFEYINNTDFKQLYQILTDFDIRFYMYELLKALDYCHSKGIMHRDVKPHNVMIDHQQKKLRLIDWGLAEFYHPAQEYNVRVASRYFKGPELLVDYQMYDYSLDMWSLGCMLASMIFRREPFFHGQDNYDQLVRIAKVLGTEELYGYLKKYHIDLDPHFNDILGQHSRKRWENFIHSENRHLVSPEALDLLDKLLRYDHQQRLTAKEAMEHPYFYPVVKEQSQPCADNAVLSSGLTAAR
Sequence of Ribosomal protein S6 kinase beta-1 (P23443 whole entry): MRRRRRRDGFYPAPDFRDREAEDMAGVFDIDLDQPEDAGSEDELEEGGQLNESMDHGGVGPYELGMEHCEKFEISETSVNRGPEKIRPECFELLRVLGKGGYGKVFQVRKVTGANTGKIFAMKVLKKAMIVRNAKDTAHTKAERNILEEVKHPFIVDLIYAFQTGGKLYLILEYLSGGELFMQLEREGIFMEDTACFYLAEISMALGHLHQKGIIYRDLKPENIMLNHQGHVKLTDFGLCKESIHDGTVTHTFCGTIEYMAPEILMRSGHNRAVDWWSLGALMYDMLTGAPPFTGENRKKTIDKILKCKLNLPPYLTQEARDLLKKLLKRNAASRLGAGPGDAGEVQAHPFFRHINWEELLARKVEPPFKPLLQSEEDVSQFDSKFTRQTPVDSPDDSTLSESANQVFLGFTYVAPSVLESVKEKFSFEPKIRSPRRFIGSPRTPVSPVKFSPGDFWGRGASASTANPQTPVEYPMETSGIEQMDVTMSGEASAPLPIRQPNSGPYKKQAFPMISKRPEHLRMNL

In general, Kd refers to the equilibrium constant for the complex coming apart. Turning to `COc1cc2nccc(Oc3ccc(NC(=O)NC4CC4)c(Cl)c3)c2cc1C(N)=O` [LENVATINIB], the Kd (on Actin-related protein 2; in [1]; at LIM domain kinase 2; in [2]; in experiment [3]; in experiment [4]) was > 30 µM (inactive) each time. Moreover, the Kd in [5], in [6], in experiment [7], in experiment [8] and in experiment [9] was > 30 µM (inactive) each time.
For `CC(C)Nc1cc(-c2c[nH]c(C(=O)N[C@H](CO)c3cccc(Cl)c3)c2)c(Cl)cn1` [ULIXERTINIB], the Kd (at Actin-related protein 2; in [1]; at LIM domain kinase 2; in experiment [2]; in experiment [3]; in experiment [4]) was > 30 µM (inactive) in each case. Moreover, the Kd in [5], in experiment [6], in [7], in [8], in experiment [10] and in [9] was > 30 µM (inactive) each time.
On to `O=C(Nc1cccc(Cl)c1)Nc1ncc(CCNc2ncnc3ccsc23)s1` [SNS-314], for which the Kd (on Actin-related protein 2; in experiment [1]; at LIM domain kinase 2; in experiment [2]; in experiment [3]; in [4]) was > 30 µM (inactive) in each case. Also, the Kd in [8] is > 30 µM (inactive).
With `Cc1cn(-c2cc(NC(=O)c3ccc(C)c(Nc4nccc(-c5cccnc5)n4)c3)cc(C(F)(F)F)c2)cn1` [NILOTINIB], on Actin-related protein 2, the Kd is > 30 µM (inactive).
Turning to `Nc1nc(N)c2nc(-c3cccc(O)c3)c(-c3cccc(O)c3)nc2n1` [TG100-115], in experiment [1], the Kd was > 30 µM (inactive).
For `CN1CCN(c2ccc3nc(-c4c(N)c5c(F)cccc5[nH]c4=O)[nH]c3c2)CC1` [DOVITINIB], the Kd at Actin-related protein 2 is > 30 µM (inactive).
As for `Cc1cc(Nc2cc(N3CCN(C)CC3)nc(/C=C/c3ccccc3)n2)n[nH]1` [ENMD-2076], the Kd on Actin-related protein 2 is > 30 µM (inactive); in [1] it was 4.41 µM (active); in [2] it was > 30 µM (inactive); in experiment [11], > 30 µM (inactive); in experiment [3] it was > 30 µM (inactive); in experiment [4], > 30 µM (inactive). The Kd in [8] is > 30 µM (inactive).
On to `Cc1nc(N)sc1-c1ccnc(Nc2ccc(N3CCOCC3)cc2)n1` [CYC-116], for which the Kd on Actin-related protein 2 was > 30 µM (inactive); in experiment [1], 0.015 µM (active); at LIM domain kinase 2, 2.55 µM (active); in experiment [11], > 30 µM (inactive); in [3], > 30 µM (inactive); in [4], > 30 µM (inactive).
As to `CCn1c(-c2nonc2N)nc2c(C#CC(C)(C)O)ncc(OC[C@H]3CCCNC3)c21` [GSK-690693], the Kd at Actin-related protein 2 is > 30 µM (inactive).
In the case of `CCc1cnn2c(NCc3ccc[n+]([O-])c3)cc(N3CCCC[C@H]3CCO)nc12` [DINACICLIB], the Kd (at Actin-related protein 2; in experiment [1]; on LIM domain kinase 2; in experiment [2]; in [3]; in [4]) was > 30 µM (inactive) in each case. Moreover, the Kd in [5], in [6], in [8], in experiment [10] and in [9] was > 30 µM (inactive) throughout.
As to `OCCn1cc(-c2cnc3nnn(Cc4ccc5ncccc5c4)c3n2)cn1` [PF-04217903], the Kd (on Actin-related protein 2; in [1]; on LIM domain kinase 2; in [2]; in [3]; in experiment [4]) was > 30 µM (inactive) throughout. Also, the Kd in experiment [5], in [6], in experiment [8], in [10] and in [9] was > 30 µM (inactive) throughout.
Turning to `COC(=O)[C@@]1(O)C[C@H]2O[C@]1(C)n1c3ccccc3c3c4c(c5c6ccccc6n2c5c31)C(=O)NC4` [K-252A], the Kd on Actin-related protein 2 is > 30 µM (inactive); in experiment [1] it was > 30 µM (inactive); on LIM domain kinase 2, > 30 µM (inactive); in experiment [2] it was > 30 µM (inactive); in experiment [4], > 30 µM (inactive); in experiment [5], 0.384 µM (active). The values for the Kd in experiment [6], in experiment [8] and in experiment [10] were 0.083 µM (active), 14.7 µM (active) and > 30 µM (inactive), respectively.
On to `O=C(c1ccc(F)c(F)c1Nc1ccc(I)cc1F)N1CC(O)([C@@H]2CCCCN2)C1` [COBIMETINIB], for which the Kd is > 30 µM (inactive) in [1]; > 30 µM (inactive) at LIM domain kinase 2; > 30 µM (inactive) in experiment [2]; 0.309 µM (active) in experiment [11]; > 30 µM (inactive) in experiment [3]; > 30 µM (inactive) in [4]. Also, the Kd in [5], in experiment [6], in experiment [7], in [8] and in experiment [9] was > 30 µM (inactive) in each case.
In the case of `CC(=O)Nc1cccc(-n2c(=O)n(C3CC3)c(=O)c3c(Nc4ccc(I)cc4F)n(C)c(=O)c(C)c32)c1` [TRAMETINIB], the Kd (at Actin-related protein 2; in experiment [1]; at LIM domain kinase 2; in [2]; in experiment [3]; in [4]) was > 30 µM (inactive) each time. Moreover, the Kd in [5], in experiment [6], in [7], in [8], in experiment [10] and in experiment [9] was > 30 µM (inactive) in each case.
Turning to `CNS(=O)(=O)Nc1nccc(Cc2c(C)c3ccc(Oc4ncccn4)cc3oc2=O)c1F` [AVUTOMETINIB], the Kd (on Actin-related protein 2; in experiment [1]; on LIM domain kinase 2; in experiment [2]; in experiment [3]; in experiment [4]) was > 30 µM (inactive) each time. The Kd in experiment [5], in [6], in experiment [7], in experiment [8], in experiment [10] and in [9] was > 30 µM (inactive) in each case.
